Data set [1] can be described thus: Solubility of the precursor in water. The data set is classed as physicochemical.
Data set [2] can be described thus: Enzyme screening: stereoselective hydrolysis (kinetic resolution) of racemic 1-(2,6-dichloro-3-fluorophenyl)ethyl acetate. The data set is classed as biochemical. Particulars: selective for hydrolysis of (S)-acetate; 5% substrate load, 100 mM potassium phosphate buffer pH 7.2. As for the experimental part: For example, for stereoselective hydrolysis of esters by biocatalysts, a program (Ee2 software-University of Graz) can accurately calculate the E value if the enantiomeric excess (ee) of either the alcohol or the ester at one particular enzymatic conversion are known. The ee value can be obtained, for example, from Equation 1. The [S] and [R] data can be obtained, for example, by HPLC.
The resolution of 1-(2,6-dichloro-3-fluorophenyl)ethyl acetate was carried out as follows. A 96-well plate prepared as described above was thawed for 5 minutes. 80 μL of potassium phosphate buffer (0.1 M, pH 7.2) was then dispensed into the wells using a multi-channel pipette. 10 μL of the substrate stock solution (50 mg/mL acetonitrile) was then added to each well via a multi-channel pipette, and the 96 reactions were incubated at 30° C. and 750 rpm. The reactions were sampled after 16 hours by the transfer of 25 μL of the reaction mixture into a new 96-well plate, which was then quenched by the addition of 150 μL of acetonitrile. The 96-well plate was then centrifuged, and the organic supernatant transferred from each well into another 96-well plate. Sampled reactions were then sealed using a penetrable mat cover and transferred to an HPLC system for analysis. The same plate was used to analyze the samples for both reactivity and enantioselectivity using alternating columns on the HPLC simultaneously. […]

Regarding `CC(=O)c1c(Cl)ccc(F)c1Cl` [precursor, 1-(2,6-dichloro-3-fluorophenyl)ethanone], the solubility in data set [1] was less than 2500 µg/mL.

B1: Subtilisin Carlsberg (protease from Bacillus licheniformis): commercially available hydrolase of the enzyme screening kit (protein, UniProt P00780 106-379, looked up)
Subtilisin Carlsberg: AQTVPYGIPLIKADKVQAQGFKGANVKVAVLDTGIQASHPDLNVVGGASFVAGEAYNTDGNGHGTHVAGTVAALDNTTGVLGVAPSVSLYAVKVLNSSGSGSYSGIVSGIEWATTNGMDVINMSLGGASGSTAMKQAVDNAYAKGVVVVAAAGNSGSSGNTNTIGYPAKYDSVIAVGAVDSNSNRASFSSVGAELEVMAPGAGVYSTYPTNTYATLNGTSMASPHVAGAAALILSKHPNLSASQVRNRLSSTATYLGSSFYYGKGLINVEAAAQ
Regarding B1, the Reactivity result in data set [2] is on record as “Low”.

What is called solubility is how much of the substance goes into solution per volume.

The record behind these values is patent publication US7465842B2, “Enantioselective biotransformation for preparation of protein tyrosine kinase inhibitor intermediates” (Agouron Pharmaceuticals, Inc., priority 2004, dated 2008).
